This passage reports EC50 and IC50 results from patent publication US20250263408A1 (Uniquest Pty Ltd, priority 2022, published 2025).

The test system of test [1] is Ba/F3-WT (wild type) cells. The test can be described thus: Ba/F3 Proliferation Assay, Ba/F3-WT (wild type) cells with mIL-3 (Resazurin). The test is classed as cell-based. The conditions noted are these: Mus musculus, BaF3, 48 h, Ba/F3-WT cells +mIL-3, 48-hour incubation. On the technique in general: The colour change of resazurin is a common sign of viable cells or microbes.

Test [2] deals with T1, Ba/F3-Syk cells (Homo sapiens, UniProt P43405).
T1 construct: fused on or other part: Possible but unprinted fusion partner: TEL (ETV6), the usual partner for Ba/F3 lines transformed by Syk; Nothing on a partner is printed
The test can be described thus: Ba/F3 Proliferation Assay, Ba/F3-Syk cells (Resazurin). It is filed as cell-based. As to conditions: 48-hour incubation.

For test [3], the target named is T2, Syk (Homo sapiens, UniProt P43405).
T2 construct: purchased Promega
The test can be described thus: Syk Biochemical Assay (ADP-Glo luminescence). As to conditions: ATP 40 μM final, 60 minutes, read-out: SYK Biochem IC50. (In general: ADP-Glo first removes unused ATP, then detects ADP through luciferase.)

Where only a bound is given, the exact number is not on record here.

As for `CC(C)n1ccc(-c2cc(OC[C@@H]3CNCC(C)(C)O3)c3nccnc3c2)c1` [Compound 8.3, 5-{[(2S)-6,6-dimethylmorpholin-2-yl]methoxy}-7-[1-(propan-2-yl)-1H-pyrrol-3-yl]quinoxaline], the concentration for a half-maximal effect (EC50) (commonly the concentration needed to bring the measured effect to its halfway point) stood at 0.833 µM in test [1] and 0.0056 µM in test [2]. Moreover, the half-maximal inhibitory concentration (IC50) (in general, the concentration that inhibits the measured activity by half) in test [3] is 0.0057 µM.

For the molecule `COCCn1ccc(-c2cc(OC[C@@H]3CNCC(C)(C)O3)c3nccnc3c2)c1` [Compound 8.4, 5-{[(2S)-6,6-dimethylmorpholin-2-yl]methoxy}-7-[1-(2-methoxyethyl)-1H-pyrrol-3-yl]quinoxaline], the EC50 in test [1] was 0.645 µM; in test [2] it was 0.0082 µM. Further, the IC50 in test [3] came out at 0.0074 µM.

`CC1(C)CNC[C@@H](COc2cc(-c3ccn(CC(F)F)c3)cc3nccnc23)O1` [Compound 8.5, 7-[1-(2,2-difluoroethyl)-1H-pyrrol-3-yl]-5-{[(2S)-6,6-dimethylmorpholin-2-yl]methoxy}quinoxaline]: the EC50 in test [1] was 0.735 µM; in test [2], 0.0045 µM. The IC50 in test [3] turned out to be 0.0052 µM.

`CC(C)n1ccc(-c2cc(OC[C@@H]3CNCCO3)c3nccnc3c2)c1` [Compound 8.6, 5-{[(2S)-morpholin-2-yl]methoxy}-7-[1-(propan-2-yl)-1H-pyrrol-3-yl]quinoxaline]: the EC50 in test [1] was 0.969 µM; in test [2], 0.00697 µM. The IC50 in test [3] turned out to be 0.0108 µM.

As to `FC(F)Cn1ccc(-c2cc(OC[C@@H]3CNCCO3)c3nccnc3c2)c1` [Compound 8.8, 7-[1-(2,2-difluoroethyl)-1H-pyrrol-3-yl]-5-{[(2S)-morpholin-2-yl]methoxy}quinoxaline], the EC50 in test [1] amounted to 1.27 µM; in test [2], 0.0162 µM. For the same molecule, in test [3], the IC50 came out at 0.0112 µM.

In the case of `CC(C)n1ccc(-c2cc(OC[C@@H]3CNCCCO3)c3nccnc3c2)c1` [Compound 8.10, 5-{[(2S)-1,4-oxazepan-2-yl]methoxy}-7-[1-(propan-2-yl)-1H-pyrrol-3-yl]quinoxaline], the EC50 was 1.62 µM in test [1] and 0.0107 µM in test [2]. The IC50 in test [3] was 0.0118 µM.

Regarding `CC(C)n1ccc(-c2cc(OC[C@@H]3CNCC4(CCC4)O3)c3nccnc3c2)c1` [Compound 8.17, 5-{[(6S)-5-oxa-8-azaspiro[3.5]nonan-6-yl]methoxy}-7-[1-(propan-2-yl)-1H-pyrrol-3-yl]quinoxaline], the EC50 in test [1] was 0.684 µM; in test [2], 0.0043 µM. Also, the 50% inhibitory concentration (IC50) in test [3] came out at 0.0147 µM.

For `FC(F)Cn1ccc(-c2cc(OC[C@@H]3CNCC4(CCC4)O3)c3nccnc3c2)c1` [Compound 8.19, 7-[1-(2,2-difluoroethyl)-1H-pyrrol-3-yl]-5-{[(6S)-5-oxa-8-azaspiro[3.5]nonan-6-yl]methoxy}quinoxaline], the EC50 came out at 0.872 µM in test [1] and 0.0064 µM in test [2]. The IC50 in test [3] worked out at 0.0065 µM.

With `C1=C(c2cc3ncccc3c(OC[C@@H]3CNCCO3)n2)CCC1` [Compound 10.1, 7-(cyclopent-1-en-1-yl)-5-{[(2S)-morpholin-2-yl]methoxy}-1,6-naphthyridine], the EC50 in test [1] was greater than 10 µM; in test [2], 0.487 µM. In test [3], the IC50 was 0.209 µM.

As for `CC(C)n1cc(-c2cc(OC[C@@H]3CNCC4(CCC4)O3)c3cccnc3c2)cn1` [Compound 11.8, 5-{[(6S)-5-oxa-8-azaspiro[3.5]nonan-6-yl]methoxy}-7-[1-(propan-2-yl)-1H-pyrazol-4-yl]quinoline], the EC50 in test [1] came out at 0.551 µM; in test [2], 0.0074 µM. In addition, the IC50 in test [3] was found to be 0.0147 µM.

With `C[C@@H]1CNC[C@@H](COc2cc(-c3ccn(C(C)(C)C)c3)cc3nccnc23)O1` [Compound 12.8, 7-(1-tert-butyl-1H-pyrrol-3-yl)-5-{[(2S,6R)-6-methylmorpholin-2-yl]methoxy}quinoxaline], the EC50 in test [1] was 0.703 µM; in test [2], 0.0013 µM. The IC50 in test [3] is 0.0051 µM.

`CC(C)(C)n1cc(-c2cc3ncccc3c(OC[C@@H]3CNC[C@H](C(F)(F)F)O3)n2)cn1` [Compound 13.13, 7-(1-tert-butyl-1H-pyrazol-4-yl)-5-([(2S,6R)-6-(trifluoromethyl)morpholin-2-yl]methoxy}-1,6-naphthyridine]: the EC50 in test [1] was found to be 1.78 µM; in test [2], 0.0418 µM. The IC50 in test [3] amounted to 0.0163 µM.

As to `CC(C)(C)n1cc(-c2cc3ncccc3c(OC[C@@H]3CNC[C@@H](C(F)(F)F)O3)n2)cn1` [Compound 13.14, 7-(1-tert-butyl-1H-pyrazol-4-yl)-5-{[(2S,6S)-6-(trifluoromethyl)morpholin-2-yl]methoxy}-1,6-naphthyridine], the figures for the EC50 in test [1] and in test [2] were 1.38 µM and 0.233 µM, respectively. Besides, the IC50 in test [3] is 0.035 µM.

For `CC(C)(C)n1cc(-c2cc3ncccc3c(OC[C@@H]3CNCC4(COC4)O3)n2)cn1` [Compound 13.15, 7-(1-tert-butyl-1H-pyrazol-4-yl)-5-{[(6S)-2,5-dioxa-8-azaspiro[3.5]nonan-6-yl]methoxy}-1,6-naphthyridine], the EC50 is 1.91 µM in test [1] and 0.0472 µM in test [2]. Besides, the IC50 in test [3] came out at 0.0198 µM.

In the case of `C[C@@H]1NCCO[C@@H]1COc1nc(-c2cnn(C3(C)CC3)c2)cc2ncccc12` [Compound 13.16, 7-[1-(1-methylcyclopropyl)-1H-pyrazol-4-yl]-5-{[(2S,3S)-3-methylmorpholin-2-yl]methoxy}-1,6-naphthyridine], the EC50 is 0.518 µM in test [1] and 0.043 µM in test [2]. Moreover, in test [3], the IC50 came to 0.0317 µM.

Regarding `CCc1ccnc2cc(-c3cnn(C(C)(C)C)c3)nc(OC[C@@H]3CNCC(C)(C)O3)c12` [Compound 14.14, 7-(1-tert-butyl-1H-pyrazol-4-yl)-5-{[(2S)-6,6-dimethylmorpholin-2-yl]methoxy}-4-ethyl-1,6-naphthyridine], the EC50 in test [1] turned out to be 1.1 µM; in test [2], 0.0206 µM. The IC50 in test [3] is 0.0336 µM.

With `COc1ccnc2cc(-c3cnn(C(C)(C)C)c3)nc(OC[C@@H]3CNCC(C)(C)O3)c12` [Compound 14.15, 7-(1-tert-butyl-1H-pyrazol-4-yl)-5-{[(2S)-6,6-dimethylmorpholin-2-yl]methoxy}-4-methoxy-1,6-naphthyridine], the EC50 in test [1] was determined as 0.519 µM; in test [2], 0.044 µM. Besides, in test [3], the IC50 came out at 0.0211 µM.
